Assays:
barnyardgrass [1] = assay: Test A preemergence; format: in vivo, Echinochloa crus-galli; conditions: preemergence
Outline: (§1)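 Growth medium: loam soil blended with sand. Preemergence treatment used a directed soil spray right after planting; postemergence treatment targeted seedlings at one to two leaves (2–10 cm height). Response was judged by eye relative to untreated plants about 10 days later on a 0–100 control scale.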

crabgrass, large [2] = assay: Test A preemergence; format: in vivo, Digitaria sanguinalis; conditions: preemergence; for Crabgrass, Large plant response rating (0 to 100 scale): 125 g ai/ha, visual injury approx. 10 days after treatment; for Crabgrass, Large plant response rating: 500 g ai/ha
Outline: as §1

foxtail, giant [3] = assay: Test A preemergence; format: in vivo, Setaria faberii; conditions: preemergence; for Foxtail, Giant plant response rating (0 to 100 scale): 125 g ai/ha, visual injury approx. 10 days after treatment; for Foxtail, Giant plant response rating: 500 g ai/ha
Outline: as §1

morningglory [4] = assay: Test A preemergence; format: in vivo, Ipomoea spp.; conditions: preemergence; for Morningglory plant response rating (0 to 100 scale): 125 g ai/ha, visual injury approx. 10 days after treatment; for Morningglory plant response rating: 500 g ai/ha
Outline: as §1

pigweed [5] = assay: Test A preemergence; format: in vivo, Amaranthus retroflexus; conditions: preemergence; for Pigweed plant response rating (0 to 100 scale): 125 g ai/ha, visual injury approx. 10 days after treatment; for Pigweed plant response rating: 500 g ai/ha
Outline: as §1

velvetleaf [6] = assay: Test A preemergence; format: in vivo, Abutilon theophrasti; conditions: preemergence; for Velvetleaf plant response rating (0 to 100 scale): 125 g ai/ha, visual injury approx. 10 days after treatment; for Velvetleaf plant response rating: 500 g ai/ha
Outline: as §1

wheat [7] = assay: Test A preemergence; format: in vivo, Triticum aestivum; conditions: preemergence; for Wheat plant response rating (0 to 100 scale): 125 g ai/ha, visual injury approx. 10 days after treatment; for Wheat plant response rating: 500 g ai/ha
Outline: as §1

corn [8] = assay: Test A preemergence; format: in vivo, Zea mays; conditions: preemergence; for Corn plant response rating (0 to 100 scale): 125 g ai/ha, visual injury approx. 10 days after treatment; for Corn plant response rating: 500 g ai/ha
Outline: as §1

barnyardgrass [9] = assay: Test A postemergence; format: in vivo, Echinochloa crus-galli
Outline: as §1

crabgrass, large [10] = assay: Test A postemergence; format: in vivo, Digitaria sanguinalis
Outline: as §1

foxtail, giant [11] = assay: Test A postemergence; format: in vivo, Setaria faberii
Outline: as §1

morningglory [12] = assay: Test A postemergence; format: in vivo, Ipomoea spp.
Outline: as §1

pigweed [13] = assay: Test A postemergence; format: in vivo, Amaranthus retroflexus
Outline: as §1

velvetleaf [14] = assay: Test A postemergence; format: in vivo, Abutilon theophrasti
Outline: as §1

wheat [15] = assay: Test A postemergence; format: in vivo, Triticum aestivum
Outline: as §1

corn [16] = assay: Test A postemergence; format: in vivo, Zea mays
Outline: as §1

rice = assay: Test B flood; format: in vivo, Oryza sativa; conditions: 250 g ai/ha, visual rating on 0 to 100 scale (0 no effect, 100 complete control), 13 to 15 days
Outline: (§2)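 Visual ratings on a 0–100 scale, where 0 means no effect and 100 means complete control, were assigned by comparison with controls 13 to 15 days after treatment. Compounds went into paddy water over 2-leaf plants flooded to 3 cm.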

sedge, umbrella = assay: Test B flood; format: in vivo, Cyperus difformis; conditions: 250 g ai/ha, visual rating on 0 to 100 scale (0 no effect, 100 complete control), 13 to 15 days
Outline: as §2

ducksalad = assay: Test B flood; format: in vivo, Heteranthera limosa; conditions: 250 g ai/ha, visual rating on 0 to 100 scale (0 no effect, 100 complete control), 13 to 15 days
Outline: as §2

barnyardgrass [17] = assay: Test B flood; format: in vivo, Echinochloa crus-galli; conditions: 250 g ai/ha, visual rating on 0 to 100 scale (0 no effect, 100 complete control), 13 to 15 days
Outline: as §2

[18] = visual injury, 0 to 100 scale, approx. 10 days
[19] = Postemergence, 125 g ai/ha, 0 to 100 scale, 0 no effect, 100 complete control
[20] = Postemergence, 500 g ai/ha, 0 to 100 scale (0 no effect, 100 complete control)
[21] = visual injury after approx. 10 days, 0 to 100 scale (0 no effect, 100 complete control)
[22] = postemergence, 125 g ai/ha, about 10 days, visual rating on 0 to 100 scale (0 no effect, 100 complete control)

| Structure (SMILES) | Crabgrass, Large plant response rating (0 to 100 scale) (crabgrass, large [2]) | Foxtail, Giant plant response rating (0 to 100 scale) (foxtail, giant [3]) | Morningglory plant response rating (0 to 100 scale) (morningglory [4]) | Pigweed plant response rating (0 to 100 scale) (pigweed [5]) | Velvetleaf plant response rating (0 to 100 scale) (velvetleaf [6]) | Wheat plant response rating (0 to 100 scale) (wheat [7]) | Corn plant response rating (0 to 100 scale) (corn [8]) | Barnyardgrass plant response rating (barnyardgrass [9]; [20]) | Crabgrass, Large plant response rating (crabgrass, large [10]; [20]) | Foxtail, Giant plant response rating (foxtail, giant [11]; [20]) | Morningglory plant response rating (morningglory [12]; [20]) | Pigweed plant response rating (pigweed [13]; [20]) | Velvetleaf plant response rating (velvetleaf [14]; [20]) | Wheat plant response rating (wheat [15]; [20]) | Corn plant response rating (corn [16]; [20]) | Plant response rating, Rice (rice) | Plant response rating, Sedge, Umbrella (sedge, umbrella) | Plant response rating, Ducksalad (ducksalad) | Plant response rating, Barnyardgrass (barnyardgrass [17]) | also measured |
| --- | --- | --- | --- | --- | --- | --- | --- | --- | --- | --- | --- | --- | --- | --- | --- | --- | --- | --- | --- | --- |
| CCONC(=O)c1cc(C)n(Cc2ccnc(C(F)(F)F)c2)n1 [Compound 231] | 0 | 0 | 0 | 0 | 0 | 0 | 0 | 0 | 10 | 0 | 0 | 0 | 0 | 0 | 10 | 0 | 0 | 0 | 0 | Barnyardgrass plant response rating (0 to 100 scale, 0 is no effect, 100 is complete control) (barnyardgrass [1]; 125 g ai/ha, visual injury approx. 10 days after treatment): 0; Barnyardgrass plant response rating (barnyardgrass [1]; 500 g ai/ha, visual injury, 0 to 100 scale (0 no effect, 100 complete control), approx. 10 days): 0; Crabgrass, Large plant response rating (crabgrass, large [2]; [18]): 0; Foxtail, Giant plant response rating (foxtail, giant [3]; [18]): 0; Morningglory plant response rating (morningglory [4]; [18]): 0; Pigweed plant response rating (pigweed [5]; [18]): 0; Velvetleaf plant response rating (velvetleaf [6]; [18]): 0; Wheat plant response rating (wheat [7]; [18]): 0; Corn plant response rating (corn [8]; [18]): 0; Barnyardgrass plant response rating (barnyardgrass [9]; [19]): 0; Crabgrass, Large plant response rating (crabgrass, large [10]; [19]): 0; Foxtail, Giant plant response rating (foxtail, giant [11]; [19]): 0; Morningglory plant response rating (morningglory [12]; [19]): 0; Pigweed plant response rating (pigweed [13]; [19]): 0; Velvetleaf plant response rating (velvetleaf [14]; [19]): 0; Wheat plant response rating (wheat [15]; [19]): 0; Corn plant response rating (corn [16]; [19]): 0 |
| COCc1cc(C(=O)NC(C)C)nn1Cc1ccnc(C(F)(F)F)c1 [Compound 166] | 100 | 100 | 100 | 100 | 60 | 10 | 10 | 90 | 80 | 70 | 100 | 100 | 60 | 50 | 80 | 10 | 80 | 85 | 10 | Barnyardgrass plant response rating (barnyardgrass [1]; 125 g ai/ha, visual injury, 0 to 100 scale, approx. 10 days): 50; Barnyardgrass plant response rating (barnyardgrass [1]; 500 g ai/ha, visual injury after approx. 10 days, 0 to 100 scale (0 no effect, 100 complete control)): 100; Crabgrass, Large plant response rating (crabgrass, large [2]; [21]): 100; Foxtail, Giant plant response rating (foxtail, giant [3]; [21]): 100; Morningglory plant response rating (morningglory [4]; [21]): 100; Pigweed plant response rating (pigweed [5]; [21]): 100; Velvetleaf plant response rating (velvetleaf [6]; [21]): 100; Wheat plant response rating (wheat [7]; [21]): 90; Corn plant response rating (corn [8]; [21]): 90; Barnyardgrass plant response rating (barnyardgrass [9]; [22]): 30; Crabgrass, Large plant response rating (crabgrass, large [10]; [22]): 40; Foxtail, Giant plant response rating (foxtail, giant [11]; [22]): 50; Morningglory plant response rating (morningglory [12]; [22]): 100; Pigweed plant response rating (pigweed [13]; [22]): 10; Velvetleaf plant response rating (velvetleaf [14]; [22]): 40; Wheat plant response rating (wheat [15]; [22]): 0; Corn plant response rating (corn [16]; [22]): 30 |

Source: patent US20150105252A1, “SUBSTITUTED PYRAZOLES AS HERBICIDES” (E I DU PONT DE NEMOURS AND COMPANY, priority 2013, published 2015)
